The nature of this data set: Toxicity in spruce budworm larvae assessed as mortality at 0.8 umol. The following applies: choristoneura fumiferana, in vivo, read-out: Activity. The data set is classed as organism-based.

For the compound `CC(C)=CCCC(=O)c1cc2cc(O)ccc2o1`, the mortality was 36%.

The values are drawn from ChEMBL document CHEMBL1158862, “Insect Toxins from an Endophytic Fungus from Wintergreen” (J Nat Prod, 1997).
